Measurements from US9833497B2, “Human originated EGF domain proteins and use of the same” (CHENGDU SOURCEBIO LIMITED-LIABILITY COMPANY, priority 2013, dated 2017).

Key:
Format in all cases: cell-based
E. coli BL21 = assay: MIC against Gram-negative bacteria: E. coli BL21; settings: for MIC against E. coli BL21: 5×10^5 CFU/mL
Method: (§1) 1. Gram-negative bacteria, such as E. coli BL21, Pseudomonas aeruginosa, Klebsiella pneumonia, Enterobacter cloacae, Aeromonas hydrophila, Citrobacter diversus, Moraxella catarrhalis, Proteus mirabilis, Proteus vulgaris, Serratia marcescens, etc were streaked on solid LB medium and cultured respectively. Then, typical clones were picked, inoculated into common liquid LB medium respectively, and cultured at 37° C. with shaking at 185 rpm until the McFarland specific turbidity was 0.5. The bacterial culture of each of Gram-negative bacteria was centrifuged at 4000×g for 3 min, the supernatant was discarded, and the thalli were resuspended with fresh LB medium.
(§2) 2. The above-mentioned bacterial suspensions were diluted and inoculated into 96-well plates with the final concentration of the bacterial suspension being 5×10^5 CFU/mL per well.
(§3) 3. Each of the purified human-originated EGF domain proteins (PRT1 to PRT1498 in Table 1) was added to each of the above wells and subjected to two-fold serial dilution in concentration. Three parallel wells were set up for each concentration in the gradient.
(§4) 4. The above-mentioned 96-well plates were placed and cultured at 37° C. in shaking incubator shaking at 175 rpm. […] The minimal inhibitory concentration MIC is defined as the lowest concentration of the recombinant protein at which there is no growth of the bacteria.

Enterobacter cloacae = assay: MIC against Gram-negative bacteria: Enterobacter cloacae; settings: for MIC against E. cloacae: 5×10^5 CFU/mL; for MIC: E. cloacae
Method: as §1, §2, §3, §4

Serratia marcescens = assay: MIC against Gram-negative bacteria: Serratia marcescens; settings: for MIC against S. marcescens: 5×10^5 CFU/mL; for MIC: S. marcescens
Method: as §1, §2, §3, §4

Pseudomonas aeruginosa = assay: MIC against Gram-negative bacteria: Pseudomonas aeruginosa; settings: for MIC against P. aeruginosa: 5×10^5 CFU/mL; for MIC: P. aeruginosa
Method: as §1, §2, §3, §4

E. coli DH5α = assay: Antibacterial activity: MIC and growth curve against E. coli DH5α in 96-well plate; settings: minimal inhibitory concentration against E. coli DH5α; 96-well plate, 5×10^5 CFU/mL, 37° C., judged after 8 h
Method: 1. E. coli DH5α was exemplified. E. coli DH5α was streaked and cultured on LB solid medium. Then, a typical clone was picked and inoculated into common LB liquid medium, cultured at 37° C. with shaking at 185 rpm until the logarithmic growth phase was reached (OD600 of about 0.5). The bacterial culture was centrifuged at 4000×g for 3 min, the supernatant was discarded, and the thalli were resuspended with fresh LB medium.
2. The above-mentioned bacterial suspension was diluted and inoculated into a 96-well plate with the total volume of 100 μL per well and a bacterial count of 5×10^5 CFU/mL.
3. The recombinant protein hF VII-EGF1 was added to the above-mentioned wells with the final protein concentration in the well of the highest protein concentration being 50 μg/mL. Basing on this final concentration, a two-fold serial dilution was performed till a protein concentration gradient consisting of 50, 25, and 12.5 μg/mL was set up. Three parallel wells were set up for each concentration in the gradient.
as §4, with “plate was” for “plates were”, “rpm. Samples were taken every 30 min, the absorbance values were determined at 600 nm wavelength under a ultra violet spectrophotometer, and an inhibition curve was plotted.” for “rpm.”
According to the experimental procedures in Example 14, the minimal inhibitory concentrations (MIC, μg/mL) of the other human-originated EGF domain proteins (PRT2 to PRT1498 in Table 1) for E. coli DH5α were determined.

Citrobacter diversus = assay: MIC against Gram-negative bacteria: Citrobacter diversus; settings: for MIC against C. diversus: 5×10^5 CFU/mL; for MIC: C. diversus
Method: as §1, §2, §3, §4

Klebsiella pneumonia = assay: MIC against Gram-negative bacteria: Klebsiella pneumonia; settings: for MIC against K. pneumonia: 5×10^5 CFU/mL; for MIC: K. pneumonia
Method: as §1, §2, §3, §4

Proteus mirabilis = assay: MIC against Gram-negative bacteria: Proteus mirabilis; settings: for MIC against P. mirabilis: 5×10^5 CFU/mL; for MIC: P. mirabilis
Method: as §1, §2, §3, §4

Aeromonas hydrophila = assay: MIC against Gram-negative bacteria: Aeromonas hydrophila; settings: for MIC against A. hydrophila: 5×10^5 CFU/mL; for MIC: A. hydrophila
Method: as §1, §2, §3, §4

Proteus vulgaris = assay: MIC against Gram-negative bacteria: Proteus vulgaris; settings: for MIC against P. vulgaris: 5×10^5 CFU/mL; for MIC: P. vulgaris
Method: as §1, §2, §3, §4

Moraxella catarrhalis = assay: MIC against Gram-negative bacteria: Moraxella catarrhalis; settings: for MIC against M. catarrhalis: 5×10^5 CFU/mL; for MIC: M. catarrhalis
Method: as §1, §2, §3, §4

[1] = E. coli BL21, 10 h cultivation at 37° C.

PRT500 (CNCDPVGSLSSVCIKDDLHSDLHNGKQPGQCPCKEGYTGEKCDRCQLGYKDYPTCVS; listed as Homo sapiens)
MIC against E. coli BL21 (E. coli BL21; 96-well plate, 37° C., 10 h): 50 µg/mL
MIC against E. cloacae (Enterobacter cloacae; 96-well plate, 37° C., 10 h): 25 µg/mL
MIC against S. marcescens (Serratia marcescens; 96-well plate, 37° C., 10 h): 25 µg/mL
MIC against P. aeruginosa (Pseudomonas aeruginosa; 96-well plate, 37° C., 10 h): 25 µg/mL
MIC (E. coli DH5α): 25 µg/mL
MIC against C. diversus (Citrobacter diversus; 96-well plate, 37° C., 10 h): 25 µg/mL
MIC against K. pneumonia (Klebsiella pneumonia; 96-well plate, 37° C., 10 h): 12.5 µg/mL
MIC against P. mirabilis (Proteus mirabilis; 96-well plate, 37° C., 10 h): 25 µg/mL
MIC against A. hydrophila (Aeromonas hydrophila; 96-well plate, 37° C., 10 h): 50 µg/mL
MIC against P. vulgaris (Proteus vulgaris; 96-well plate, 37° C., 10 h): 50 µg/mL
MIC against M. catarrhalis (Moraxella catarrhalis; 96-well plate, 37° C., 10 h): 12.5 µg/mL

PRT1403 (SVVECPRNCHGNGECVSGTCHCFPGFLGPDCS; listed as Homo sapiens)
MIC against E. coli BL21 (E. coli BL21; [1]): 12.5 µg/mL
MIC against E. cloacae (Enterobacter cloacae; Enterobacter cloacae, 10 h cultivation at 37° C.): 25 µg/mL
MIC against S. marcescens (Serratia marcescens; Serratia marcescens, 10 h cultivation at 37° C.): 50 µg/mL
MIC against P. aeruginosa (Pseudomonas aeruginosa; Pseudomonas aeruginosa, 10 h cultivation at 37° C.): 50 µg/mL
MIC (E. coli DH5α): 50 µg/mL
MIC against C. diversus (Citrobacter diversus; Citrobacter diversus, 10 h cultivation at 37° C.): 50 µg/mL
MIC against K. pneumonia (Klebsiella pneumonia; Klebsiella pneumonia, 10 h cultivation at 37° C.): 12.5 µg/mL
MIC against P. mirabilis (Proteus mirabilis; Proteus mirabilis, 10 h cultivation at 37° C.): 50 µg/mL
MIC against A. hydrophila (Aeromonas hydrophila; Aeromonas hydrophila, 10 h cultivation at 37° C.): 25 µg/mL
MIC against P. vulgaris (Proteus vulgaris; Proteus vulgaris, 10 h cultivation at 37° C.): 12.5 µg/mL
MIC against M. catarrhalis (Moraxella catarrhalis; Moraxella catarrhalis, 10 h cultivation at 37° C.): 12.5 µg/mL

PRT1277 (ETCAVNNGGCDSKCHDAATGVHCTCPVGFMLQPDRKTCK; listed as Homo sapiens)
MIC against E. coli BL21 (E. coli BL21; E. coli BL21, 96-well plate, 37° C., 10 h): 50 µg/mL
MIC against E. cloacae (Enterobacter cloacae; Enterobacter cloacae, 96-well plate, 37° C., 10 h): 12.5 µg/mL
MIC against S. marcescens (Serratia marcescens; Serratia marcescens, 96-well plate, 37° C., 10 h): 12.5 µg/mL
MIC against P. aeruginosa (Pseudomonas aeruginosa; Pseudomonas aeruginosa, 96-well plate, 37° C., 10 h): 12.5 µg/mL
MIC (E. coli DH5α): 12.5 µg/mL
MIC against C. diversus (Citrobacter diversus; Citrobacter diversus, 96-well plate, 37° C., 10 h): 12.5 µg/mL
MIC against K. pneumonia (Klebsiella pneumonia; Klebsiella pneumonia, 96-well plate, 37° C., 10 h): 50 µg/mL
MIC against P. mirabilis (Proteus mirabilis; Proteus mirabilis, 96-well plate, 37° C., 10 h): 12.5 µg/mL
MIC against A. hydrophila (Aeromonas hydrophila; Aeromonas hydrophila, 96-well plate, 37° C., 10 h): 50 µg/mL
MIC against P. vulgaris (Proteus vulgaris; Proteus vulgaris, 96-well plate, 37° C., 10 h): 25 µg/mL
MIC against M. catarrhalis (Moraxella catarrhalis; Moraxella catarrhalis, 96-well plate, 37° C., 10 h): 25 µg/mL

PRT1023 (PINYCETGLHNCDIPQRAQCIYTGGSSYTCSCLPGFSGDGQACQ; listed as Homo sapiens)
MIC (E. coli BL21; [1]): 12.5 µg/mL
MIC (Enterobacter cloacae; 10 h cultivation at 37° C.): 25 µg/mL
MIC (Serratia marcescens; 10 h cultivation at 37° C.): 12.5 µg/mL
MIC (Pseudomonas aeruginosa; 10 h cultivation at 37° C.): 25 µg/mL
MIC (E. coli DH5α): 25 µg/mL
MIC (Citrobacter diversus; 10 h cultivation at 37° C.): 25 µg/mL
MIC (Klebsiella pneumonia; 10 h cultivation at 37° C.): 12.5 µg/mL
MIC (Proteus mirabilis; 10 h cultivation at 37° C.): 12.5 µg/mL
MIC (Aeromonas hydrophila; 10 h cultivation at 37° C.): 12.5 µg/mL
MIC (Proteus vulgaris; 10 h cultivation at 37° C.): 50 µg/mL
MIC (Moraxella catarrhalis; 10 h cultivation at 37° C.): 12.5 µg/mL

PRT934 (DKNECLSNPCQNGGTCDNLVNGYRCTCKKGFKGYNCQ; listed as Homo sapiens)
MIC (E. coli BL21; [1]): 25 µg/mL
MIC (Enterobacter cloacae; 10 h cultivation at 37° C.): 50 µg/mL
MIC (Serratia marcescens; 10 h cultivation at 37° C.): 50 µg/mL
MIC (Pseudomonas aeruginosa; 10 h cultivation at 37° C.): 50 µg/mL
MIC (E. coli DH5α): 12.5 µg/mL
MIC (Citrobacter diversus; 10 h cultivation at 37° C.): 25 µg/mL
MIC (Klebsiella pneumonia; 10 h cultivation at 37° C.): 12.5 µg/mL
MIC (Proteus mirabilis; 10 h cultivation at 37° C.): 50 µg/mL
MIC (Aeromonas hydrophila; 10 h cultivation at 37° C.): 25 µg/mL
MIC (Proteus vulgaris; 10 h cultivation at 37° C.): 12.5 µg/mL
MIC (Moraxella catarrhalis; 10 h cultivation at 37° C.): 12.5 µg/mL
